# Assay results from patent US20210322426A1, “METHODS OF TREATING CANCER WITH PI3K ALPHA INHIBITORS AND METFORMIN” (Genentech, Inc., priority 2018, published 2021).
# Like-named read-outs stand apart in the source and are kept apart here.
# Columns and labels:
# [1] = system: patients with HR+/HER2- breast cancer; conditions: in combination with fulvestrant; cited from earlier work
# [2] = system: patients with HR+/HER2- breast cancer; conditions: in combination with letrozole; cited from earlier work
# [3] = system: PI3K-pathway markers pAKT, pPRAS40, pS6; assay: downstream PI3K-pathway markers (pAKT, pPRAS40, pS6)
# [4] = system: human breast xenograft models harboring PIK3CA mutations; assay: tumor growth in human breast xenograft models harboring PIK3CA mutations; format: in vivo
# [5] = system: tumor cells bearing mutant PI3K; conditions: mutant PI3K over wild type (WT) PI3K cells; cited from earlier work
# [6] = target: Class I PI3K alpha isoform (Homo sapiens, UniProt P42336); conditions: PI3K alpha versus PI3K beta, delta and gamma isoforms; cited from earlier work
# Sequence of Class I PI3K alpha isoform (P42336 whole entry, canonical isoform): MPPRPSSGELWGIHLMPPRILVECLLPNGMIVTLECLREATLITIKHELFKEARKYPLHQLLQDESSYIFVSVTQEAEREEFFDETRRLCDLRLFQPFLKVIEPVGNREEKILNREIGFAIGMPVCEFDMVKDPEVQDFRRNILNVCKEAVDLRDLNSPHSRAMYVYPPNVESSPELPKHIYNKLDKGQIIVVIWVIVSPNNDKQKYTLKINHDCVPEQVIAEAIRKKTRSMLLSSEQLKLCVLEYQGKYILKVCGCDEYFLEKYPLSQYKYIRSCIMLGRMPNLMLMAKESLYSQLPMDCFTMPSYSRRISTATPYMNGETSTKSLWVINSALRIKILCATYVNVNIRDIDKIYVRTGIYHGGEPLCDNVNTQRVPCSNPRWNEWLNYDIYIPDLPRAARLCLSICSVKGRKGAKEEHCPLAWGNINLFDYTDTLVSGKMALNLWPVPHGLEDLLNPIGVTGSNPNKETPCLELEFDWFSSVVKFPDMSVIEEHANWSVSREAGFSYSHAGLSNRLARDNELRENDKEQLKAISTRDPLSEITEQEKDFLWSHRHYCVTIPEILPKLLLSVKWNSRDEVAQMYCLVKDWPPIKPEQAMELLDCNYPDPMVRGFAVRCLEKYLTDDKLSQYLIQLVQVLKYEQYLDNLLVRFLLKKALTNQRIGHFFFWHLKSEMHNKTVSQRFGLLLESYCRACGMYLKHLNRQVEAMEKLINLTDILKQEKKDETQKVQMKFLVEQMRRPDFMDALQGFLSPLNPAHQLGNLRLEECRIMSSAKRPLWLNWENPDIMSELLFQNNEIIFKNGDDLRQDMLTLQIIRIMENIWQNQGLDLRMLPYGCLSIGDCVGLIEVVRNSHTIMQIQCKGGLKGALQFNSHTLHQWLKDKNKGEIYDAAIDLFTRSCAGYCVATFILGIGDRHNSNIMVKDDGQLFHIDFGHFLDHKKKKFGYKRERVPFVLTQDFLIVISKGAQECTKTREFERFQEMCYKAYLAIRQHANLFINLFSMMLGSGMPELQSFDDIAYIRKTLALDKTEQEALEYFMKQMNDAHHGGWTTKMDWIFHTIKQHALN
# Sequence of Class I PI3K alpha isoform (P27986 whole entry partner, canonical isoform): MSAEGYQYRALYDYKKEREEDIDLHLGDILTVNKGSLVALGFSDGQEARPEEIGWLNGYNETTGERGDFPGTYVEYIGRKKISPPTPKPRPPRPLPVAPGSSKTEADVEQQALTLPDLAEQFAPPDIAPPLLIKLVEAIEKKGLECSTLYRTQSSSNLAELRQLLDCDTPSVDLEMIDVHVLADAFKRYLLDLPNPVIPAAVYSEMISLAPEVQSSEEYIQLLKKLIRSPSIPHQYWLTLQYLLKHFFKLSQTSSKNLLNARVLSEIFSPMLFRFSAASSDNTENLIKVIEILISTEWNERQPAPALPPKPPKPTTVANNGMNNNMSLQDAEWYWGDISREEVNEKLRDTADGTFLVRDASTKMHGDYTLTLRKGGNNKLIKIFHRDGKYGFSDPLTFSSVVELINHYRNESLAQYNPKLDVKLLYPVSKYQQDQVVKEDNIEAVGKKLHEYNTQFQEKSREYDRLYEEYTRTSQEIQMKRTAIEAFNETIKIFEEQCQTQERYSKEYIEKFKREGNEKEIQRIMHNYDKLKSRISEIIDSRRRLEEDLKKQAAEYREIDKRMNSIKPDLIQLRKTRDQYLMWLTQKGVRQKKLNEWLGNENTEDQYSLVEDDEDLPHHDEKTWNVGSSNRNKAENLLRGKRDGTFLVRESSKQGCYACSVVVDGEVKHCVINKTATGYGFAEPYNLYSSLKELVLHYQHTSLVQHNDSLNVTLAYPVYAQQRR
# [7] = system: PIK3CA-mutant breast cancer cell lines; assay: proliferation and apoptosis of PIK3CA-mutant breast cancer cell lines; format: cell-based; conditions: nonclinical studies
# mutant p110 alpha = assay: degradation of mutant p110 alpha (nonclinical studies)
Structure (SMILES),patients requiring 1 dose reduction of palbociclib [1] [%],patients with cycle delays [1] [%],patients with dose holds [1] [%],patients requiring 1 dose reduction of palbociclib [2] [%],patients with cycle delays [2] [%],patients with dose holds [2] [%],downstream PI3K-pathway markers [3],tumor growth in xenograft models [4],potency in mutant PI3K tumor cells over wild type PI3K cells [5],fold less potent biochemical inhibition for other Class I PI3K isoforms [6] [fold],apoptosis of PIK3CA-mutant breast cancer cell lines [7],proliferation of PIK3CA-mutant breast cancer cell lines [7],degradation of mutant p110 alpha (mutant p110 alpha)
"CC(=O)c1c(C)c2cnc(Nc3ccc(N4CCNCC4)cn3)nc2n(C2CCCC2)c1=O [palbociclib, 6-acetyl-8-cyclopentyl-5-methyl-2-(5-(piperazin-1-yl)pyridin-2-ylamino)pyrido[2,3-d]pyrimidin-7(8H)-one]",34,36,54,36,68,70,,,,,,,
"C[C@H](Nc1ccc2c(c1)OCCn1cc(N3C(=O)OC[C@H]3C(F)F)nc1-2)C(N)=O [GDC-0077, (S)-2-((2-((S)-4-(difluoromethyl)-2-oxooxazolidin-3-yl)-5,6-dihydrobenzo[f]imidazo[1,2-d][1,4]oxazepin-9-yl)amino)propanamide]",,,,,,,reduces downstream PI3K-pathway markers,inhibits tumor growth,increased potency,> 300,induces apoptosis,inhibits proliferation,specifically degrades mutant p110 alpha
